From US10800775B2, “Pyrazolyl pyrrolo[2,3-b]pyrmidine-5-carboxylate analogs and methods of making the same” (ACLARIS THERAPEUTICS, INC., priority 2017, dated 2020)

Legend:
[1] = target: JAK3 (a.a. 781-1124) (Homo sapiens (Human), UniProt P52333); test: JAK3 enzyme activity assay (SRCtide phosphorylation, Caliper); format: biochemical; conditions: 2.5 nM JAK3, 1 μM SRCtide, 1 uM ATP; read-out: JAK3 Inhibition IC50
Experimental: The activity of JAK3 (a.a. 781-1124, ThermoFisher) was quantified by measuring the phosphorylation of SRCtide (FAM-GEEPLYWSFPAKKK-NH2). Kinase reactions were run in a 384-well Greiner plate with 2% final DMSO concentration under the buffer conditions of 20 mM HEPES, pH 7.5, 10 mM MgCl2, 0.01% BSA, and 0.0005% Tween-20. The kinase reaction components were 2.5 nM JAK3, 1 μM SRCtide peptide and 1 uM ATP. Examples were tested in dose-response starting at 2 μM (11 concentrations, 3-fold serial dilution, duplicate reactions). The reactions were incubated at room temperature for 40 minutes, then stopped by adding a 1:1 volume of 30 mM EDTA in 20 mM HEPES, pH 7.5 (15 mM EDTA final). After the reaction was stopped, the phosphorylated and unphosphorylated peptides were separated and quantified using a Caliper LC3000/EZ-Reader system and HTS Well Analyzer Software (Caliper, A PerkinElmer Company, Hopkinton, Mass.). GraFit (Erithacus Software Ltd., Horley, U.K.) was used to calculate inhibitor potency by fitting dose-response data to the 4-parameter logistical IC50 equation.

[2] = target: JAK1 (Homo sapiens (Human), UniProt P23458); test: JAK1 enzyme activity assay (Z-lyte, Thermo Fisher Selectscreen); format: biochemical; conditions: 2 μM Tyr 06 peptide, read-out: JAK1 Inhibition IC50
JAK1, sequence (P23458 whole entry): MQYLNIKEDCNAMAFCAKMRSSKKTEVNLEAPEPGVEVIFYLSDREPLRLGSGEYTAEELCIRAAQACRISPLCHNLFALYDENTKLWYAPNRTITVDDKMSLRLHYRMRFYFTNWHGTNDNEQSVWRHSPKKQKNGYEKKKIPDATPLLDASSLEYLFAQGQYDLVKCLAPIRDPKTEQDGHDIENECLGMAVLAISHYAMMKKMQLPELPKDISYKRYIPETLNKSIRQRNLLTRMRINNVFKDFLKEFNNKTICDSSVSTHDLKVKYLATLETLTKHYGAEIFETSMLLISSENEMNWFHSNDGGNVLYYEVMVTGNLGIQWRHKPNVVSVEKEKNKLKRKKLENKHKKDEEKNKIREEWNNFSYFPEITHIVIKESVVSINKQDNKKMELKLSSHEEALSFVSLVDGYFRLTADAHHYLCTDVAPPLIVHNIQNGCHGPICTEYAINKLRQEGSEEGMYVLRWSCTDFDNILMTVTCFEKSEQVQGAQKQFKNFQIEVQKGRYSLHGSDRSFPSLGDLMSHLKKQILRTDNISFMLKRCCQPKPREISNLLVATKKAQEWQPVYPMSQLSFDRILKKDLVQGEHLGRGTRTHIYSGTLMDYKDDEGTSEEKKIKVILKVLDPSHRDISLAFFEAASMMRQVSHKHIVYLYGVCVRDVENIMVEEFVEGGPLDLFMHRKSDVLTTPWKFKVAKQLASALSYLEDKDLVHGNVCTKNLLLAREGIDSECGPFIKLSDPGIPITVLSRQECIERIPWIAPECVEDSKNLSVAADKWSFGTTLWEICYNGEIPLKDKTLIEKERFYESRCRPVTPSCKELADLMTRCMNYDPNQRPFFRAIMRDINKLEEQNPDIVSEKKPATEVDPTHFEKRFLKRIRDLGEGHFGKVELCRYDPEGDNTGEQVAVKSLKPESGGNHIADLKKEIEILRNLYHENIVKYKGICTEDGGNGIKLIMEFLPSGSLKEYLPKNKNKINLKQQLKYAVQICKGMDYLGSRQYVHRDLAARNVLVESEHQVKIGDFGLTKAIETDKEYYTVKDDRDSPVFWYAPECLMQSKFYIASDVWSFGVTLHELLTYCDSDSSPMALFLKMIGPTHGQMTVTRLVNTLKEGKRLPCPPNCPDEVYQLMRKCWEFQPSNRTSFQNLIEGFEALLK
Experimental: The inhibitory potency of candidate compounds of JAK1 done at Thermo Fisher Scientific in their Selectscreen using a Z-lyte assay. The 2×JAK1/Tyr 06 mixture is prepared in 50 mM HEPES pH 6.5, 0.01% BRIJ-35, 10 mM MgCl2, 1 mM EGTA, 0.02% NaN3. The final 10 μL of the Kinase Reaction consists of 21.2-91.5 ng JAK1 and 2 μM Tyr 06 in 50 mM HEPES pH 7.0, 0.01% BRIJ-35, 10 mM MgCl2, 1 mM EGTA, 0.01% NaN3. After the 1 hour Kinase Reaction incubation, 5 μL of a 1:128 dilution of Development Reagent is added.
Background signal is defined in the absence of enzyme and uninhibited signal is defined in the presence of vehicle (2% DMSO) alone. Compounds were evaluated in an 11 point dose-response ranging from […] to 0.34 nM. IC50 values of compounds are determined using a 4 parameter logistical fit of emission ratio as a function of the concentration of compound.

[3] = test system: IFNγ stimulated STAT1 phosphorylation on Tyr701 (JAK1/2); test: JAK1/2 phospho-STAT1 cellular target modulation assay, IFNγ stimulated human PBMC; format: cell-based; conditions: IFNγ 10 ng/ml, read-out: Infγ-STAT1 IC50
Source text: (§1) Target modulation was based upon the ability of a compound to inhibit JAK isoform specific phosphorylation of selected substrates. IL-2 stimulated STAT5 phosphorylation on Tyr694 was used to assess JAK1/3 compound selectivity. GM-CSF stimulated STAT5 phosphorylation on Tyr694 was used to assess JAK2 compound selectivity. IFNγ stimulated STAT1 phosphorylation on Tyr701 was used to assess JAK1/2 compound selectivity. For all three assays, human PBMC from frozen stocks were thawed, pelleted, resuspended in complete media (90% RPMI, 10% heat inactivated FBS, 10 mM HEPES, 47 μM 2-ME, pen/strep) and placed in wells of a 96 well V-bottom plate at 200,000 per well in 120 μl complete media. Compounds were added as 15 μl per well of 10× working stock solutions in complete media with 1% DMSO (or medium with 1% DMSO for controls) and placed on a plate shaker in a 37° C. incubator with 5% CO2 for 1 hour with gentle shaking (setting of 3). Stimulation used the addition of soluble cytokines. For the JAK1/3 phospho-STAT5 assay, 15 μl of 10× working stock recombinant human IL-2 was added to a final concentration of 25 ng/ml. For the JAK2 phospho-STAT5 assay, 15 μl of 10× working stock recombinant human GM-CSF was added to a final concentration of 5 ng/ml. For the JAK1/2 phospho-STAT1 assay, 15 μl of 10× working stock of recombinant human IFNγ was added to a final concentration of 10 ng/ml. Plates were then placed back on the plate shaker in the incubator for an additional 5, 5 and 10 minutes respectively upon which the plates were removed from the incubator, sealed with a plate sealer and the cells pelleted at 400×g for 5 minutes. After pelleting, the media was removed by aspiration and the cells were lysed in ELISA specific cell lysis buffer. The levels of phospho-STAT5 were determined using a Phospho (Tyr694)/Total STAT5a,b Whole Cell Lysate kit from Meso Scale Discovery. Levels of phospho-STAT1 were determined using a CST-PathScan Phospho-STAT1 (Tyr701) Sandwich ELISA kit.

[4] = test system: IL-2 stimulated STAT5 phosphorylation on Tyr694 (JAK1/3); test: JAK1/3 phospho-STAT5 cellular target modulation assay, IL-2 stimulated human PBMC; format: cell-based; conditions: IL-2 25 ng/ml, read-out: IL2-STAT5 Inhibition IC50
Source text: as §1

JAK3 (a.a. 781-1124), sequence (P52333 781-1124): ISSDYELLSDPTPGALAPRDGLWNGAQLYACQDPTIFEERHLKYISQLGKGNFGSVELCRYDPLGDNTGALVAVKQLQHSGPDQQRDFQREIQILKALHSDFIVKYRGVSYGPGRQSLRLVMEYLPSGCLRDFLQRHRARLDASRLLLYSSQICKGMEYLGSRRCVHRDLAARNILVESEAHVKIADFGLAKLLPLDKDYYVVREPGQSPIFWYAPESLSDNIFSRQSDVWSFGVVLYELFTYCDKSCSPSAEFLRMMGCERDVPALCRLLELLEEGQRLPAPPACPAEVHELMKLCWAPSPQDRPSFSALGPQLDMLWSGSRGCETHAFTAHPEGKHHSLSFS

Structure (SMILES)	IC50 [1] [nM]	IC50 [2] [nM]	IC50 [3] [nM]	IC50 [4] [nM]
CCOC(=O)c1cnc2[nH]ccc2c1-c1cnn([C@H](CC#N)C2CCCC2)c1 (single isomer, unassigned; stereoisomer 1) [Example 16, ethyl 4-(1-(2-cyano-1-cyclopentylethyl)-1H-pyrazol-4-yl)-1H-pyrrolo[2,3-b]pyridine-5-carboxylate stereoisomer 1]	10 to 100	≤ 10	100 to 1000	100 to 1000
CCOC(=O)c1cnc2[nH]ccc2c1-c1cnn([C@@H](CC#N)C2CCCC2)c1 (single isomer, unassigned; stereoisomer 2) [Example 17, ethyl 4-(1-(2-cyano-1-cyclopentylethyl)-1H-pyrazol-4-yl)-1H-pyrrolo[2,3-b]pyridine-5-carboxylate stereoisomer 2]	10 to 100	10 to 100	100 to 1000	100 to 1000
CCOC(=O)c1cnc2[nH]ccc2c1-c1cnn(C2(CC#N)CN(S(=O)(=O)CC)C2)c1 [Example 9, ethyl 4-(1-(3-(cyanomethyl)-1-(ethylsulfonyl)azetidin-3-yl)-1H-pyrazol-4-yl)-1H-pyrrolo[2,3b]pyridine-5-carboxylate]	10 to 100	≤ 10	100 to 1000	≤ 100
CCCOC(=O)c1cnc2[nH]ccc2c1-c1cnn([C@H](CC#N)C2CCCC2)c1 [Example 20, propyl (R)-4-(1-(2-cyano-1-cyclopentylethyl)-1H-pyrazol-4-yl)-1H-pyrrolo[2,3-b]pyridine-5-carboxylate]	10 to 100	≤ 10	100 to 1000	≤ 100

Next, values leading:

IC50 [1] [nM]	IC50 [2] [nM]	IC50 [3] [nM]	IC50 [4] [nM]	Structure (SMILES)
10 to 100	≤ 10	100 to 1000	100 to 1000	CCOC(=O)c1cnc2[nH]ccc2c1-c1cnn(C(CC#N)C2CCCC2)c1 (racemic) [Example 1, ethyl 4-(1-(2-cyano-1-cyclopentylethyl)-1H-pyrazol-4-yl)-1H-pyrrolo[2,3-b]pyridine-5-carboxylate]
10 to 100	≤ 10	100 to 1000	≤ 100	CC(C)OC(=O)c1cnc2[nH]ccc2c1-c1cnn([C@H](CC#N)C2CCCC2)c1 (single isomer, unassigned; enantiomer 1) [Example 18, isopropyl 4-(1-(2-cyano-1-cyclopentylethyl)-1H-pyrazol-4-yl)-1H-pyrrolo[2,3-b]pyridine-5-carboxylate, enantiomer 1]
10 to 100	10 to 100	100 to 1000	≤ 100	CC(C)OC(=O)c1cnc2[nH]ccc2c1-c1cnn([C@@H](CC#N)C2CCCC2)c1 (single isomer, unassigned; enantiomer 2) [Example 19, isopropyl 4-(1-(2-cyano-1-cyclopentylethyl)-1H-pyrazol-4-yl)-1H-pyrrolo[2,3-b]pyridine-5-carboxylate, enantiomer 2]
